Patent US10450318B2, “CXCR4 receptor antagonists” (BRISTOL-MYERS SQUIBB COMPANY, priority 2015, dated 2019)

Target: T1, CXCR4 receptors (Homo sapiens, UniProt P61073)
T1 construct: expressing endogenous CXCR4 receptors; endogenous in cells; host or cells: CCRF-CEM (human T lymphoblast cells)
Experiment: CXCR4-CEM calcium flux assay, antagonist mode (inhibition of SDF-1α-induced calcium flux)
Type: cell-based
Settings: inhibition of calcium flux induced by 4 nM SDF-1α in CCRF-CEM cells
Procedure: Exemplary compounds of the invention were tested for their ability to induce or inhibit calcium flux in CCRF-CEM cells. […] CXCR4-CEM Calcium Flux Assays. […] The cells were then equilibrated to room temperature for 30 minutes before assay. […] The serially diluted compounds were diluted to working concentrations with the same assay buffer to 0.5% DMSO. […] Activity of the compounds to induce calcium flux was monitored by FDSS in the “agonist mode” for 90 sec. For “antagonist mode” assessment, the cells are subsequently incubated for 25 min at room temperature. SDF-1α (R&D System Cat#350-NS/CF) was then added at a final concentration of 4 nM to stimulate the cells. Inhibition of SDF-1α-induced calcium flux was monitored by FDSS6000 for 90 sec. […] After correcting for background, EC50 values were determined. […] Inhibition data for the test compound over a range of concentrations was plotted as percentage inhibition of the test compound as compared to an internal control compound.

T1 sequence (P61073 whole entry): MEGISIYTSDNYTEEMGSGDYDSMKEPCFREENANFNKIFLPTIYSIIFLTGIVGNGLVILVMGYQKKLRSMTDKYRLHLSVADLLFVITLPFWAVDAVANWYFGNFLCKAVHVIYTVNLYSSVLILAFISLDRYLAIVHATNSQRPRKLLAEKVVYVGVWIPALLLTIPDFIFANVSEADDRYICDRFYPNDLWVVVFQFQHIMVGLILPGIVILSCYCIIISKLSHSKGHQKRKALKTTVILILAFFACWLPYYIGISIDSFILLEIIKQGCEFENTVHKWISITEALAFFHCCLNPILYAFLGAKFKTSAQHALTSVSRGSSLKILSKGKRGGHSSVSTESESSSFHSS

| SMILES | IC50 [nM] |
| --- | --- |
| CN(Cc1cn2c(N3CCNC(c4ccccc4)C3)nccc2n1)[C@H]1CCCc2cccnc21 (single isomer, unassigned) [Example 79] | 56 |
| CN1CCN(c2nccc3nc(CN(C)[C@H]4CCCc5cccnc54)cn23)CC1 [Example 4, (S)—N-Methyl-N-((5-(4-methylpiperazin-1-yl)imidazo[1,2-c]pyrimidin-2-yl)methyl)-5,6,7,8-tetrahydroquinolin-8-amine] | 2.5 |
| CN(Cc1cn2c(N3CCNCC3)nccc2n1)[C@H]1CCCc2cccnc21 [Example 5, (S)—N-Methyl-N-((5-(piperazin-1-yl)imidazo[1,2-c]pyrimidin-2-yl)methyl)-5,6,7,8-tetrahydroquinolin-8-amine] | 8.1 |
| CN1CCN(c2nccc3nc(CN(C)[C@H]4CCCc5cccnc54)c(CO)n23)CC1 [Example 7, (S)-(2-((Methyl(5,6,7,8-tetrahydroquinolin-8-yl)amino)methyl)-5-(4-methylpiperazin-1-yl)imidazo[1,2-c]pyrimidin-3-yl)methanol] | 2.4 |
| CSc1nccc2nc(CN(C)[C@H]3CCCc4cccnc43)cn12 [Example 8, (S)—N-Methyl-N-((5-(methylthio)imidazo[1,2-c]pyrimidin-2-yl)methyl)-5,6,7,8-tetrahydroquinolin-8-amine] | 89 |
| CN(Cc1cn2c(N3CCOCC3)nccc2n1)[C@H]1CCCc2cccnc21 [Example 9, (S)—N-Methyl-N-((5-morpholinoimidazo[1,2-c]pyrimidin-2-yl)methyl)-5,6,7,8-tetrahydroquinolin-8-amine] | 25500 |
| CC(=O)N1CCN(c2nccc3nc(CN(C)[C@H]4CCCc5cccnc54)cn23)CC1 [Example 10, (S)-1-(4-(2-((Methyl(5,6,7,8-tetrahydroquinolin-8-yl)amino)methyl)imidazo[1,2-c]pyrimidin-5-yl)piperazin-1-yl)ethanone] | 8600 |
| CN(Cc1cn2c(N3CCN(CCF)CC3)nccc2n1)[C@H]1CCCc2cccnc21 [Example 12, (S)—N-((5-(4-(2-Fluoroethyl)piperazin-1-yl)imidazo[1,2-c]pyrimidin-2-yl)methyl)-N-methyl-5,6,7,8-tetrahydroquinolin-8-amine] | 54 |
| COC(=O)N1CCN(c2nccc3nc(CN(C)[C@H]4CCCc5cccnc54)cn23)CC1 [Example 13, (S)-Methyl 4-(2-((methyl(5,6,7,8-tetrahydroquinolin-8-yl)amino)methyl)imidazo[1,2-c]pyrimidin-5-yl)piperazine-1-carboxylate] | 5670 |
| CCNC(=O)N1CCN(c2nccc3nc(CN(C)[C@H]4CCCc5cccnc54)cn23)CC1 [Example 14, (S)—N-ethyl-4-(2-((methyl(5,6,7,8-tetrahydroquinolin-8-yl)amino)methyl)imidazo[1,2-c]pyrimidin-5-yl)piperazine-1-carboxamide] | 1230 |
| CN(Cc1cn2c(N3CCN(S(C)(=O)=O)CC3)nccc2n1)[C@H]1CCCc2cccnc21 [Example 15, (S)—N-Methyl-N-((5-(4-(methylsulfonyl)piperazin-1-yl)imidazo[1,2-c]pyrimidin-2-yl)methyl)-5,6,7,8-tetrahydroquinolin-8-amine] | 750 |
| CN(Cc1cn2c(N3CCN(CCc4ccccc4)CC3)nccc2n1)[C@H]1CCCc2cccnc21 [Example 18, (S)-N-methyl-N-({5-[4-(2-phenylethyl)piperazin-1-yl]imidazo[1,2-c]pyrimidin-2-yl}methyl)-5,6,7,8-tetrahydroquinolin-8-amine] | 14 |
| CC(C)N1CCN(c2nccc3nc(CN(C)[C@H]4CCCc5cccnc54)cn23)CC1 [Example 20, (S)-N-methyl-N-({5-[4-(propan-2-yl)piperazin-1-yl]imidazo[1,2-c]pyrimidin-2-yl}methyl)-5,6,7,8-tetrahydroquinolin-8-amine] | 9.6 |

Other lines, results leading:

| IC50 [nM] | SMILES |
| --- | --- |
| 11 | CN(Cc1cn2c(N3CCNC(c4ccccc4)C3)nccc2n1)[C@H]1CCCc2cccnc21 (single isomer, unassigned) [Example 78] |
| > 30000 | CN(Cc1cn2c(N3CCN4CCOCC4C3)nccc2n1)[C@H]1CCCc2cccnc21 (single isomer, unassigned) [Example 91] |
| 290 | CN(Cc1cn2c(N3CCN4CCOCC4C3)nccc2n1)[C@H]1CCCc2cccnc21 (single isomer, unassigned) [Example 92] |
| 24 | CN(Cc1cn2c(N3CC4CCCNC4C3)nccc2n1)[C@H]1CCCc2cccnc21 (single isomer, unassigned) [Example 95] |
| 220 | CN(Cc1cn2c(N3CC4CCCNC4C3)nccc2n1)[C@H]1CCCc2cccnc21 (single isomer, unassigned) [Example 96] |
| > 30000 | CN(Cc1cn2c(N3CCN(C(=O)OC(C)(C)C)CC3)nccc2n1)[C@H]1CCCc2cccnc21 [Example 3, (S)-tert-Butyl 4-(2-((methyl(5,6,7,8-tetrahydroquinolin-8-yl)amino)methyl)imidazo[1,2-c]pyrimidin-5-yl)piperazine-1-carboxylate] |
| 3.8 | CN(Cc1nc2ccnc(N3CCNCC3)n2c1CO)[C@H]1CCCc2cccnc21 [Example 6, (S)-(2-((Methyl(5,6,7,8-tetrahydroquinolin-8-yl)amino)methyl)-5-(piperazin-1-yl)imidazo[1,2-c]pyrimidin-3-yl)methanol] |
| 13 | CN(Cc1cn2c(N3CCN(CCO)CC3)nccc2n1)[C@H]1CCCc2cccnc21 [Example 11, (S)-2-(4-(2-((Methyl(5,6,7,8-tetrahydroquinolin-8-yl)amino)methyl)imidazo[1,2-c]pyrimidin-5-yl)piperazin-1-yl)ethanol] |
| 540 | CN(Cc1cn2c(N3CCN(CCN)CC3)nccc2n1)[C@H]1CCCc2cccnc21 [Example 16, (S)—N-((5-(4-(2-Aminoethyl)piperazin-1-yl)imidazo[1,2-c]pyrimidin-2-yl)methyl)-N-methyl-5,6,7,8-tetrahydroquinolin-8-amine] |
| 3.7 | [2H]C([2H])([2H])N1CCN(c2nccc3nc(CN(C)[C@H]4CCCc5cccnc54)cn23)CC1 [Example 17, (S)—N-Methyl-N-((5-(4-(methyl-d3)piperazin-1-yl)imidazo[1,2-c]pyrimidin-2-yl)methyl)-5,6,7,8-tetrahydroquinolin-8-amine] |
| 14 | CC(C)CCN1CCN(c2nccc3nc(CN(C)[C@H]4CCCc5cccnc54)cn23)CC1 [Example 19, (S)-N-methyl-N-({5-[4-(3-methylbutyl)piperazin-1-yl]imidazo[1,2-c]pyrimidin-2-yl}methyl)-5,6,7,8-tetrahydroquinolin-8-amine] |
| 17 | CN(Cc1cn2c(N3CCN(CC4CC4)CC3)nccc2n1)[C@H]1CCCc2cccnc21 [Example 21, (8S)-N-({5-[4-(cyclopropylmethyl)piperazin-1-yl]imidazo[1,2-c]pyrimidin-2-yl}methyl)-N-methyl-5,6,7,8-tetrahydroquinolin-8-amine] |
| 42 | CC(C)CN1CCN(c2nccc3nc(CN(C)[C@H]4CCCc5cccnc54)cn23)CC1 [Example 22, (S)-N-methyl-N-({5-[4-(2-methylpropyl)piperazin-1-yl]imidazo[1,2-c]pyrimidin-2-yl}methyl)-5,6,7,8-tetrahydroquinolin-8-amine] |
| 770 | CN(Cc1cn2c(N3CCN(C4CCCCC4)CC3)nccc2n1)[C@H]1CCCc2cccnc21 [Example 23, (S)-N-{[5-(4-cyclohexylpiperazin-1-yl)imidazo[1,2-c]pyrimidin-2-yl]methyl}-N-methyl-5,6,7,8-tetrahydroquinolin-8-amine] |
